Reference: patent US20050049242A1 (priority 2000, published 2005)

tested on: HIVLAI; test: Anti-HIV assay, protection from HIV-induced cell death; format: cell-based; conditions: read-out: ED50 (concentration that inhibits HIV-induced cell death by 50%); HIVLAI, MT-2 cells, 72 hr
Description: Anti-HIV assays were performed as described above. […] The compounds were then two-fold serially diluted in triplicate. To each 50 μl of diluted compound, 50 μl of HIVLAI was added and the virus-drug mixture was incubated for 1 hr at 37° C. […] Final multiplicity of infection (MOI) was 1-5. Cells were harvested to quantitate cytopathic effect using a neutral red dye assay as described.

Row | SMILES | EC50
1 | O=C(O[C@@H](C(=O)O)[C@@H](OC(=O)c1cc(O)c(O)c(O)c1)C(=O)O)c1cc(O)c(O)c(O)c1 [Compound 25] | 0.66 µM
2 | O=C(O[C@@H](C(=O)O)[C@@H](OC(=O)c1ccc(O)c(O)c1)C(=O)O)c1ccc(O)c(O)c1 [Compound 26] | 0.95 µM
3 | O=C(Cc1ccc(O)c(O)c1)O[C@@H](C(=O)O)[C@@H](OC(=O)Cc1ccc(O)c(O)c1)C(=O)O [Compound 28] | 35 µM

tested on: HIV-1NL4-3clone1-D4; test: not given; format: cell-based; conditions: HIVNL4-3clone1-D4 vs HIVNL4-3
Description: (§1) Cloning and sequencing of virus from the HIVNL4-3 passaged in the presence of 8 μM L-chicoric acid was undertaken to determine the molecular basis for resistance to L-chicoric acid and to isolate a resistant HIV clone.
This cloning was accomplished through site-directed mutagenesis introducing several silent mutations immediately upstream and downstream of the integrase gene. These mutations generated two unique restriction sites: an upstream SacII and a downstream XbaI (FIG. 15). Introduction of these mutations allowed the entire integrase gene with only minimal upstream and downstream nucleotides to be digested and “swapped” between drug-resistant and drug-sensitive clones.

Row | SMILES | Fold Change (ED50 resistant clone vs HIVNL4-3)
4 | O=C(O[C@@H](C(=O)O)[C@@H](OC(=O)c1cc(O)c(O)c(O)c1)C(=O)O)c1cc(O)c(O)c(O)c1 [Compound 25] | 107
5 | O=C(O[C@@H](C(=O)O)[C@@H](OC(=O)c1ccc(O)c(O)c1)C(=O)O)c1ccc(O)c(O)c1 [Compound 26] | 64
6 | O=C(Cc1ccc(O)c(O)c1)O[C@@H](C(=O)O)[C@@H](OC(=O)Cc1ccc(O)c(O)c1)C(=O)O [Compound 28] | 4

same assay, conditions: compared with parental HIVNL4-3

Row | SMILES | efficacy against the L-chicoric acid resistant clone
7 | O=C(O[C@@H](C(=O)O)[C@@H](OC(=O)c1cc(O)c(O)c(O)c1)C(=O)O)c1cc(O)c(O)c(O)c1 [Compound 25] | reduced efficacy
8 | O=C(O[C@@H](C(=O)O)[C@@H](OC(=O)c1ccc(O)c(O)c1)C(=O)O)c1ccc(O)c(O)c1 [Compound 26] | reduced efficacy
9 | O=C(Cc1ccc(O)c(O)c1)O[C@@H](C(=O)O)[C@@H](OC(=O)Cc1ccc(O)c(O)c1)C(=O)O [Compound 28] | reduced efficacy

same assay, conditions: mean of triplicate infections; read-out: ED50 HIVNL4-3clone1-D4

Row | SMILES | EC50
10 | O=C(O[C@@H](C(=O)O)[C@@H](OC(=O)c1cc(O)c(O)c(O)c1)C(=O)O)c1cc(O)c(O)c(O)c1 [Compound 25] | 31.2 µM
11 | O=C(O[C@@H](C(=O)O)[C@@H](OC(=O)c1ccc(O)c(O)c1)C(=O)O)c1ccc(O)c(O)c1 [Compound 26] | 52.5 µM
12 | O=C(Cc1ccc(O)c(O)c1)O[C@@H](C(=O)O)[C@@H](OC(=O)Cc1ccc(O)c(O)c1)C(=O)O [Compound 28] | 62.5 µM

tested on: HIV-1NL4-3; test: Anti-HIV cytopathicity assay against parental molecular clone; format: cell-based; conditions: mean of triplicate infections; read-out: ED50 HIVNL4-3
Description: as §1
Assays, as described above, to determine the ED50 for a given compound against the molecular clone HIVNL4-3clone1-D4 and the parental clone HIVNL4-3 give an indication of the selectivity of the compound for inhibition of HIV replication through IN. Resistance to a compound, as measured by an increased ED50, by clone HIVNL4-3clone1-D4, implies selectivity of the compound for IN. Thus clone HIVNL4-3clone1-D4 can be used to screen candidate IN inhibitors for selectivity.

Row | SMILES | EC50
13 | O=C(O[C@@H](C(=O)O)[C@@H](OC(=O)c1cc(O)c(O)c(O)c1)C(=O)O)c1cc(O)c(O)c(O)c1 [Compound 25] | 0.29 µM
14 | O=C(O[C@@H](C(=O)O)[C@@H](OC(=O)c1ccc(O)c(O)c1)C(=O)O)c1ccc(O)c(O)c1 [Compound 26] | 0.82 µM
15 | O=C(Cc1ccc(O)c(O)c1)O[C@@H](C(=O)O)[C@@H](OC(=O)Cc1ccc(O)c(O)c1)C(=O)O [Compound 28] | 15.6 µM

tested on: MT-2 cells; test: not given; conditions: 48 hours
Excerpt: The chemical structures of the compounds are illustrated in FIGS. 1-4. In FIG. 1a, the D- and meso-isomers of L-chicoric acid are identical in this illustrative format. […] The first compound in Table 1, L-chicoric acid, a previously described DCTA, is included for reference. LD5, the 5% lethal dose, is a measure of the toxicity of compound to living, cultured cells. It is the concentration at which cell growth is inhibited by 5%. […] Most simply understood, disintegration is a term used to refer to the reverse of integration.
Cell toxicity and anti-HIV assays were performed as reported above. […] Cells were incubated with drug for 48 hours at 37° C., then harvested for cell viability in a neutral red dye assay as described.

Row | SMILES | LD5 (5% lethal dose, concentration at which cell growth is inhibited by 5%)
16 | O=C(O[C@@H](C(=O)O)[C@@H](OC(=O)c1cc(O)c(O)c(O)c1)C(=O)O)c1cc(O)c(O)c(O)c1 [Compound 25] | 2.7 µM
17 | O=C(O[C@@H](C(=O)O)[C@@H](OC(=O)c1ccc(O)c(O)c1)C(=O)O)c1ccc(O)c(O)c1 [Compound 26] | 90 µM
18 | O=C(Cc1ccc(O)c(O)c1)O[C@@H](C(=O)O)[C@@H](OC(=O)Cc1ccc(O)c(O)c1)C(=O)O [Compound 28] | 70 µM
